US5661138A, “(o-Acyl-p-N-acylamino-phenyl)-O-phosphoethanolamines” (Clarion Pharmaceutical, Inc., priority 1996, dated 1997)

How the values were obtained:
[1] = test system: TNB-induced inflammation in rat colon; assay: In Vivo Assay--Rat Ulcerative Colitis Model (TNB-induced); set-up: species or system rat (male Sprague-Dawley); settings: 150 mg/kg, rectal, once a day for 5 days; FIG. 2
Text: The model described in this section provides a tool for investigating the effect of compounds in colonic intimation. This model and the experimental methods are described in the following reference: Luck, Michael S. and Bass, Paul, (1993), "Effect of Epidermal Growth Factor on Experimental Colitis in the Rat," J. Pharmacol. Exp. Therap. 264:984-990. In this assay, inflammatory lesions in the rat colon are induced by the intracolonic administration of 2,4,6-trinitrobenzenesulfonic acid.
1. Rats: Male Sprague-Dawley, 185-195 g obtainable from Harlan Sprague Dawley, Indianapolis, Ind., USA;
a. Prepare 100 mg/mL 5-aminosalicylic acid (5-ASA), 50 mg/mL CPR-2015, and 150 mg/mL CPR-2015 in saline;
b. Divide 34 rats into 4 groups of 8 rats each and one group of two rats;
c. Leave the group with two rats completely untreated;
d. Treat the other four groups of rats with 200 μl of Saline, 500 μl of 100 mg/mL 5-ASA, 200 μl of 50 mg/mL CPR-2015, or 200 μl of 150 mg/mL CPR-2015. These treatments are administered rectally with an 8-cm catheter;
e. After one hour, treat the above four groups of rats rectally with 500 μl of 100 mg/mL 2,4,6-trinitrobenzenesulfonic acid (TNB) in 30% ethanol and 70% saline;
f. Repeat the treatments described in paragraph 2(d) once a day for a total of 5 days;
g. On the 6th day, euthanize the rates in a CO2 chamber; and
h. […]

[2] = test system: Mouse Macrophage RAW 264.7; assay: In Vitro Chemiluminescence Assay: inhibition of respiratory burst in PMA-stimulated mouse macrophage RAW 264.7; type: cell-based
Text: The cells are capable of phagocytosis and undergo an oxidative burst in response to appropriate signals. Agents that inhibit the activation of these cell in vitro are therefore inhibitors of critical steps in inflammatory processes.
Activation of macrophages and other phagocytic cell types initiates a cascade of actions that include increased oxygen consumption (respiratory burst) and production of oxygen radicals. These events can be measured m a variety of ways, including chemiluminescence based on the addition of luminol (see M. A. Trush et al, (1978), The generation of chemiluminescence by phagocytic cells, Methods in Enzymology 56:462-494). Because chemiluminescence is induced by the increased production of oxygen radicals that are thought to be important in intracellular killing of bacteria, chemiluminescence has long been used as an index of phagocytic cell activity. In addition, oxygen radical production is associated with inflammatory responses and may have adverse consequences in non-infectiousinflammation. For this reason, macrophage activation is of critical importance in studies of the inflammatory process. Agents that reduce macrophage activation are likely to have utility as anti-inflammatory agents.
1. Cell line: Raw 264.7 (ATCC TIB-71, attachment dependent).
2. Culture medium: Dulbecco's Modified Eagle's Medium (DMEM) with 10% Fetal Bovine Serum (FBS).
3. Standard protocol for culturing cell lines: in T-75 or T-150 flasks; 37° C.; 95% air, 5% CO2; 100% humidity;
a. Cell line is passaged when approximately 80% confluent; with trypsin (1 mg/mL) and ethylenediaminetetraacetic acid (EDTA) (1 mM in Ca-Mg free Hank's balanced salt solution); at a 1:4 to 1:5 split;
b. All procedures are performed aseptically in a class II biological safety cabinet using standard BL-2 containment procedures. In order to prevent genetic drift in stock cell lines, fresh cultures are prepared at approximately monthly intervals with cells thawed from liquid nitrogen storage.
a. After cell passage, count cells with a hemacytometer;
b. Adjust cell concentration to approximately 1,000,000 cells per mL;
c. Suspend cells in DMEM lacking phenol red and without FBS;
d. Pipette 1 mL of cell suspension into a standard luminometer cuvette (12×75 mm), commercially obtainable from Analytical Luminescence Laboratories, San Diego, Calif., USA;
e. Add luminol to final concentration of 0.2 mM;
f. Add test compound dissolved in phosphate buffered saline (PBS) for final concentration levels ranging from 0 to 10 μM;
g. Add 100 nanograms of phorbol myristate acetate (PMA): and
h. Wait 1 minute and read photo counts (i.e., luminescence) on a Monolight 2010 luminometer available from Analytical Luminescence Laboratories, San Diego.
Background--no test compound present; no PMA present;
Control--no test compound present;
Calculate: [formula] where L is luminescence. 6.

[3] = test system: carrageenan-induced paw edema in the rat; assay: In Vivo Assay--Rat Carrageenan-Induced Paw Edema; set-up: species or system rat (male Sprague-Dawley); settings: intraperitoneal, 6 hours; FIG. 3
Text: The model, which provides a tool for investigating the effect of compounds on paw intimation, is described in the following reference: Bartlett, R. R., et al. (1993), "Effects of leflunomide on immune responses and models of inflammation," Springer Semin Immunopathol 14:381-394. It essentially consists of the following:
1. Rats: Male Sprague-Dawley, approximately 165 g obtainable from Harlan Sprague Dawley, Indianapolis, Ind., USA;
a. Measure the volume of the left hind paw by strain gauge/fluid immersion;
b. Inject 100 μL of 1% carrageenan in saline intradermally into the left hind foot pad;
c. Inject vehicles or test compounds dissolved in either saline (CPR-2015) or 50% saline and 50% ethanol (indomethacin, dexamethasone, and CPR-2014) intraperitoneally, placing 3-5 rats in each treatment group;
d. Six hours later, measure the volume of the left hind paw by strain gauge/fluid immersion;
e. Calculate average percent increase in paw volume for each treatment group.

[4] = test system: PMA-induced inflammation in mouse ears; assay: In Vivo Assay--Mouse Ear model, PMA-induced inflammation; set-up: species or system mouse (male CD-1); settings: concentration tested 5%, topical to ear, 6 hours; FIG. 1
Description: A common in vivo model for the evaluation of anti-inflammatory agents is PMA-induced inflammation in mouse ears. This method is described in "Pharmacological Methods in the Control of Inflammation," Joseph Y. Chang and Alan J. Lewis (eds), Alan R. Liss, Inc., New York, pp 221-223 (1989). In this assay, edema, which is a characteristic of inflammation, is quantified by determining ear thickness or ear weight approximately 6 hours after applying PMA to the ear.
1. Mice: Male CD-1, 21-24 g (Product Number 3002) obtainable from Harlan Sprague Dawley, Indianapolis, Ind., USA.
a. Prepare 0.01% (w/v) PMA in a mixture of equal volumes of acetone and ethanol;
b. Prepare 0.01% (w/v) PMA and 5% (w/v) test compound in a mixture of equal volumes of acetone and ethanol;
c. Divide 12 mice into 4 groups of 3 mice each;
d. Treat the first group of mice by applying 20 μL of a mixture of equal volumes of acetone and ethanol (vehicle) to the left ear using a micropipetter;
e. Treat the second group of mice by applying 20 μL of PMA solution to the left ear;
f. Treat the other two groups of mice by applying 20 μL of PMA/test compound solution to the left ear;
g. Wait 6 hours and euthanize the mice in a CO2 chamber;
h. Cut the ears and punch out circles of 6-mm diameter; and
i. Measure the weight of three appropriate ear punches in the same group together.

| Compound | inhibition of TNB-induced inflammation in rat colon [1] | inhibition at 0.1 µM ([2]; Mus musculus, RAW264.7, Concentration 0.1 µM, PMA-stimulated RAW 264.7, luminol chemiluminescence) | inhibition at 0.3 µM ([2]; Mus musculus, RAW264.7, Concentration 0.3 µM, PMA-stimulated RAW 264.7, luminol chemiluminescence) | inhibition at 1 µM ([2]; Mus musculus, RAW264.7, Concentration 1 µM, PMA-stimulated RAW 264.7, luminol chemiluminescence) | inhibition at 3 µM ([2]; Mus musculus, RAW264.7, Concentration 3 µM, PMA-stimulated RAW 264.7, luminol chemiluminescence) | inhibition at 10 µM ([2]; Mus musculus, RAW264.7, Concentration 10 µM, PMA-stimulated RAW 264.7, luminol chemiluminescence) | inhibition of PMA-induced macrophage activation ([2]; at concentrations above 0.3 μM) | inhibition of carrageenan-induced edema in rat paw [3] | inhibition of PMA-induced inflammation in mouse ear [4] |
| --- | --- | --- | --- | --- | --- | --- | --- | --- | --- |
| CCCCCCCCCCCCCCCC(=O)Nc1ccc(OP(=O)([O-])OCC[N+](C)(C)C)c(C(C)=O)c1 [CPR-2015, (o-acetyl-p-N-hexadecanamido-phenyl)-O-phosphocholine] | marked inhibition | 13% | 63% | 94% | 97% | 99% | marked inhibition | marked inhibition | completely inhibited |
| CCCCCCCCCCCCCCCC(=O)Nc1ccc(O)c(C(C)=O)c1 [CPR-2014, 1-(5-hexadecanamido-2-hydroxy-phenyl)-ethanone] | – | – | – | – | – | – | – | marked inhibition | partially inhibited |
